Data from ChEMBL document CHEMBL1201862, “PubChem BioAssay data set” (2004).
Calls of active or inactive are those of the source.

Key:
HEK293 = assay: cells; format: functional, cell-based; conditions: Homo sapiens
[1] = biological target: T1, Nuclear receptor subfamily 0 group B member 1 (Homo sapiens, UniProt P51843); assay: Luminescence-based cell-based high throughput dose response assay for inhibitors of the orphan nuclear receptor subfamily 0, group B, member 1 (DAX1; NR0B1). [Related pubchem assays (depositor defined):AID504766, AID504790]; format: functional
T1 sequence (P51843 whole entry): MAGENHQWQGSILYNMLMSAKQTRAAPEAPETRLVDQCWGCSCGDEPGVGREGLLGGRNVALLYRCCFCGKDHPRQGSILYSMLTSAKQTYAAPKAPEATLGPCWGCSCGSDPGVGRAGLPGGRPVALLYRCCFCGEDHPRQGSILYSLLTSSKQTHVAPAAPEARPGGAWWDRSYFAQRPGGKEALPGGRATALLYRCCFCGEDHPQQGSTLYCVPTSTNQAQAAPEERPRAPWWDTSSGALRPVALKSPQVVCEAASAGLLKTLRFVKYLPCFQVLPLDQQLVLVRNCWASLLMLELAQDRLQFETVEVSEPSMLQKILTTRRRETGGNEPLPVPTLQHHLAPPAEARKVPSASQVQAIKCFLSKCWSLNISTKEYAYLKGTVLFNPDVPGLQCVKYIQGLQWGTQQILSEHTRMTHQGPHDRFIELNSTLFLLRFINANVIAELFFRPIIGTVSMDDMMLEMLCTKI

HeLa = assay: HeLa cell cytotoxicity, dose response, cytotoxicity control for MITF activator project, CellTiter-Glo luminescence, cherry-pick samples (AID 540259); format: functional, cell-based; conditions: Homo sapiens
Protein skinhead-1 = biological target: T2, Protein skinhead-1 (Caenorhabditis elegans, UniProt P34707); format: functional
T2 sequence (P34707 whole entry): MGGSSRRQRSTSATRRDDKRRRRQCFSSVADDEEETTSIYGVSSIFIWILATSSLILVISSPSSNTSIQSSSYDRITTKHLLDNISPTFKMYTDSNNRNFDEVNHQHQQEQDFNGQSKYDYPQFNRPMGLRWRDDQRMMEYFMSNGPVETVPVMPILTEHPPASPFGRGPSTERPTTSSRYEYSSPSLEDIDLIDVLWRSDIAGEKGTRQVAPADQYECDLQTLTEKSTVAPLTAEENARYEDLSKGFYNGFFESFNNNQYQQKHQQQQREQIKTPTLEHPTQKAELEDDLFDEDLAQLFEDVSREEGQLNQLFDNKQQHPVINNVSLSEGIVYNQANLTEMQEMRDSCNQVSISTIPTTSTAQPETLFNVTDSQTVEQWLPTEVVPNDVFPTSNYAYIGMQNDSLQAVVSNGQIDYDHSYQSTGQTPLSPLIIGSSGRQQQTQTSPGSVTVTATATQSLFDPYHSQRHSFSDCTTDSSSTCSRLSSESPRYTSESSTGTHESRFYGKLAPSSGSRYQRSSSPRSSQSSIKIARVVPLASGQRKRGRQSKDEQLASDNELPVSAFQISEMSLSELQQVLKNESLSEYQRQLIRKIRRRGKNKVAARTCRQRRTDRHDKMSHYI

Trypsin = Trypsin (Sus scrofa, UniProt P00761); assay: porcine trypsin inhibitors, dose response, selectivity assay for Rce1 protease inhibitor project, biochemical, quenched peptide fluorescence, cherry-pick (AID 488789)
[2] = biological target: FAD-linked sulfhydryl oxidase ALR (Homo sapiens, UniProt P55789); assay: inhibitors of human ALR sulfhydryl oxidase, dose response, biochemical, H2O2 detection, luminescence, cherry-pick (AID 493248)
CAAX prenyl protease 2 = biological target: T3, CAAX prenyl protease 2 (Homo sapiens, UniProt Q9Y256); assay: human Rce1 protease inhibitors, dose response, biochemical, yeast membranes, quenched-peptide fluorescence, cherry-pick (AID 588849)
T3 sequence (Q9Y256 whole entry): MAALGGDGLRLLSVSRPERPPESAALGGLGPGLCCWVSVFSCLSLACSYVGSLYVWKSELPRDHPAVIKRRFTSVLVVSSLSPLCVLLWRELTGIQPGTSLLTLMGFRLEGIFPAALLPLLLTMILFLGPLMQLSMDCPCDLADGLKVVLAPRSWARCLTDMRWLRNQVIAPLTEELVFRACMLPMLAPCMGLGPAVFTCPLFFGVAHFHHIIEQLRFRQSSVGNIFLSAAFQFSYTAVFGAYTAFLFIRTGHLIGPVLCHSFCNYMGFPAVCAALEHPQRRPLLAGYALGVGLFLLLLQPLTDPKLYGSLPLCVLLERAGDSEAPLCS

[3] = HeLa cell cytotoxicity, dose response, cytotoxicity control for MgcRacGAP inhibitor project (AID 624300); format: functional
[4] = biological target: T4, Rac GTPase-activating protein 1 (Homo sapiens, UniProt Q9H0H5); assay: MgcRacGAP GTPase-activating activity inhibitors, confirmation, biochemical, ADP Hunter fluorescence, primary and confirmatory (AID 624330); format: functional
T4 sequence (Q9H0H5 whole entry): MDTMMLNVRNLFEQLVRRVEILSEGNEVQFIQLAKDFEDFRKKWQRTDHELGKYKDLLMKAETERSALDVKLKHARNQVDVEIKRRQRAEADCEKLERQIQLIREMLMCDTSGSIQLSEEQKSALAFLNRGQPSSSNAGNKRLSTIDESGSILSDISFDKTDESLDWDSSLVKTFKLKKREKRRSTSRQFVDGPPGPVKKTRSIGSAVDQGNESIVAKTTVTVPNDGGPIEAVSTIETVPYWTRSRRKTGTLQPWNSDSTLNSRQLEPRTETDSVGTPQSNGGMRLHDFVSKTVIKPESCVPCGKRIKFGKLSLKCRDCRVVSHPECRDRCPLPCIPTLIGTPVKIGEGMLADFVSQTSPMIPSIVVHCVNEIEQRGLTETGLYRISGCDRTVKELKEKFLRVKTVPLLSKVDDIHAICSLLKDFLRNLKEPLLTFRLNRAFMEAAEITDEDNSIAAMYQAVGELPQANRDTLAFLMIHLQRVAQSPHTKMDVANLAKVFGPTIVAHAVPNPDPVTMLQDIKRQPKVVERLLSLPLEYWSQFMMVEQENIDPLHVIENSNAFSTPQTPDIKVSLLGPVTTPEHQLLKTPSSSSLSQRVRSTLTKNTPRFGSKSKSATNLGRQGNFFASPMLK

[5] = biological target: T5, Ubiquitin-conjugating enzyme E2 N (Homo sapiens, UniProt P61088); format: functional;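 also: Dose-response confirmation in a TR-FRET assay detecting UBC13-driven polyubiquitin chain formation, inhibition measured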
T5 sequence (P61088 whole entry): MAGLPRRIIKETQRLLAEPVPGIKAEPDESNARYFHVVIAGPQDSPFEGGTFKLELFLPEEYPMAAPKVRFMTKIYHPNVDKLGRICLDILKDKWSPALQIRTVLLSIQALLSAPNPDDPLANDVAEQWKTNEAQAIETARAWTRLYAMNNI

[6] = Luminescence Cell-Based Dose Retest to Confirm Inhibitors of Cancer Stem Cells. [Related pubchem assays (depositor defined):AID2717, AID2721]; format: functional; conditions: Homo sapiens
A-375 = assay: A375 melanoma cell viability reduction, dose response, counter-screen for MITF modulator project, cherry-pick samples, set 2 (AID 540335); format: functional, cell-based; conditions: Homo sapiens
[7] = A cytotoxicity screen of small molecule inhibitors of the PhoP region in Salmonella typhi identified in the primary screen. [Related pubchem assays: 1850, 1864, 1985 ]; format: functional
[8] = biological target: T6, Small ubiquitin-related modifier 1 (Homo sapiens, UniProt P63165); assay: inhibitors of SUMO1 peptide binding, dose response, biochemical, fluorescence polarization, uHTS hits (AID 624382); format: functional; conditions: read-out: IC50_Mean
Streptokinase A = biological target: T7, Streptokinase A (Streptococcus pyogenes serotype M1, UniProt P10520); assay: S. pyogenes streptokinase expression inhibitors, potency, dose response, plasminogen activation absorbance, OD405 (AID 1914); format: functional, Streptococcus pyogenes M1 GAS;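 also: secreted streptokinase activity via plasminogen activation per viability signal from cell pellet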
T7 sequence (P10520 whole entry): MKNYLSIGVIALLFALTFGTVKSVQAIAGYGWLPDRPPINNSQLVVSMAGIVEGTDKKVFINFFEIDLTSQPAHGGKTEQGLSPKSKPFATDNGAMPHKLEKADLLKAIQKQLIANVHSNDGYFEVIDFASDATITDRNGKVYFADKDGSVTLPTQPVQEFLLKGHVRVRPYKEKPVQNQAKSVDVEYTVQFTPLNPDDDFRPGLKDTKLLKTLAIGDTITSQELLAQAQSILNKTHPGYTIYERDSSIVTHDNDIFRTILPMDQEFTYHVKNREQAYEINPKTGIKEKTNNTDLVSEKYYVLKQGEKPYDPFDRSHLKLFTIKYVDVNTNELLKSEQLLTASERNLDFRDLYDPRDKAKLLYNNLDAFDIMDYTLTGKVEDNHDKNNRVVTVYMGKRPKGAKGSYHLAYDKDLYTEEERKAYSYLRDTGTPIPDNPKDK

[9] = tested on: Streptococcus sp. 'group A'; assay: growth inhibition of control SK(-) GAS strain, dose response, counter-screen for streptokinase expression inhibitor project, luminescence, kanamycin, BacTiterGlo, confirmation (AID 1900); format: functional, organism-based
[10] = biological target: Induced myeloid leukemia cell differentiation protein Mcl-1 (Homo sapiens, UniProt Q07820); format: functional
[11] = biological target: T6, Small ubiquitin-related modifier 1; assay: inhibitors of SUMO1 partner interactions, dose response, biochemical, FRET (AID 624383); format: functional; conditions: read-out: IC50_Mean
Streptococcus = assay: Group A Streptococcus viability loss, dose response, counter-screen for streptokinase expression inhibitor project, luminescence, BacTiterGlo (AID 1915); format: functional, organism-based;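 also: potency for reduction of bacterial viability or growth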
[12] = biological target: T8, Endoribonuclease toxin MazF (Escherichia coli K-12, UniProt P0AE70); assay: fluorescent RNA oligo signal without MazF, dose response, counter-screen for MazEF activator project, biochemical, fluorescence, single-stranded RNase substrate (AID 588502); format: functional
T8 sequence (P0AE70 whole entry): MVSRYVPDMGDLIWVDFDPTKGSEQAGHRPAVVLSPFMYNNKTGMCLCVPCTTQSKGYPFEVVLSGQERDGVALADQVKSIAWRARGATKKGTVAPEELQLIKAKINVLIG

[13] = biological target: T9, Zinc finger protein mex-5 (Caenorhabditis elegans, UniProt Q9XUB2); assay: MEX-5/TCR-2 RNA interaction inhibitors, dose response, biochemical, C. elegans, fluorescence polarization (AID 1960)
T9 sequence (Q9XUB2 whole entry): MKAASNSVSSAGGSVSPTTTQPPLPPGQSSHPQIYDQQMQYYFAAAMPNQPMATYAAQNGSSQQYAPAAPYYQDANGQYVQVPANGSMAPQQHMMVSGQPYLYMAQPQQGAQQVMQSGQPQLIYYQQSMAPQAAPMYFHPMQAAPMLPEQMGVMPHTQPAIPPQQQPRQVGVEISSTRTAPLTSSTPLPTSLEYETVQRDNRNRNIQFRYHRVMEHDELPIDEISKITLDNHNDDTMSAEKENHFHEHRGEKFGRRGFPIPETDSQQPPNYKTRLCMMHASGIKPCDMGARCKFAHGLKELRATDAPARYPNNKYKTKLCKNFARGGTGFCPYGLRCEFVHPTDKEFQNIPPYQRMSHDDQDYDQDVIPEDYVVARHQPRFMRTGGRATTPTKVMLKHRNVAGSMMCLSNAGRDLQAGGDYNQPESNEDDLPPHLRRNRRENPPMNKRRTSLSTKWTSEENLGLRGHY

[14] = biological target: T8, Endoribonuclease toxin MazF; assay: MazF toxin RNase activators, dose response, biochemical, fluorescence, single-stranded RNA substrate, uHTS hits (AID 588481); format: functional
[15] = biological target: T10, RNA-binding protein pos-1 (Caenorhabditis elegans, UniProt G5EF15); assay: inhibitors of POS-1/mex-3 RNA binding, dose response, biochemical, fluorescence polarization (AID 1964);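 also: purified POS-1 fused to maltose binding protein made in E. coli; potency of compounds blocking POS-1 binding to fluorescent RNA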
T10 sequence (G5EF15 whole entry): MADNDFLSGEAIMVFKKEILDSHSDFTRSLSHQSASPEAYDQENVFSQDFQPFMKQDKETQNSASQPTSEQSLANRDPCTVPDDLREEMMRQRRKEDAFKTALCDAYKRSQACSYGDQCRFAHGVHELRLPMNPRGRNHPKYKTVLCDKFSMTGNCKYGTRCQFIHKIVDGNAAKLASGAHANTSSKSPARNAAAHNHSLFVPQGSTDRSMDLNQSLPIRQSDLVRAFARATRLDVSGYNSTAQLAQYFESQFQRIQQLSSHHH

Cytochrome P450 3A4 = Cytochrome P450 3A4 (Homo sapiens, UniProt P08684);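 also: CYP3A4 tested as one member of a cytochrome P450 panel screen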
Cytochrome P450 2D6 = Cytochrome P450 2D6 (Homo sapiens, UniProt P10635);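 also: CYP2D6 member of a cytochrome P450 panel assay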
Chain of Cytochrome P450 2D6 (P10635 whole entry): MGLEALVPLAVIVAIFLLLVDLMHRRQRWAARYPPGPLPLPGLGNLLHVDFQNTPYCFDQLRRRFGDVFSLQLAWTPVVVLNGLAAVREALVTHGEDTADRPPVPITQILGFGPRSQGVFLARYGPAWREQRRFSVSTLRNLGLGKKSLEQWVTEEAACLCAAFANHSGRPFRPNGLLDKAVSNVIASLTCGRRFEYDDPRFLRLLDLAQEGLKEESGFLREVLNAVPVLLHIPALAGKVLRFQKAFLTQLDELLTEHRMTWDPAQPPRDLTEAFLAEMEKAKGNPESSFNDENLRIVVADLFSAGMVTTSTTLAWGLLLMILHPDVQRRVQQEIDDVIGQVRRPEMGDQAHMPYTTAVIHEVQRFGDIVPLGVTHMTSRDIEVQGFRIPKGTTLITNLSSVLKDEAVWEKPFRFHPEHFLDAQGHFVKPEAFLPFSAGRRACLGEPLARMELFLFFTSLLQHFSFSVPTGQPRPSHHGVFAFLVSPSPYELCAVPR

T6 sequence (P63165 whole entry): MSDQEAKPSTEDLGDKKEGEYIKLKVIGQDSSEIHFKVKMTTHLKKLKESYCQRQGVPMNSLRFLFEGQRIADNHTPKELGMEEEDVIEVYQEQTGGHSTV
Chain of Induced myeloid leukemia cell differentiation protein Mcl-1 (Q07820 whole entry): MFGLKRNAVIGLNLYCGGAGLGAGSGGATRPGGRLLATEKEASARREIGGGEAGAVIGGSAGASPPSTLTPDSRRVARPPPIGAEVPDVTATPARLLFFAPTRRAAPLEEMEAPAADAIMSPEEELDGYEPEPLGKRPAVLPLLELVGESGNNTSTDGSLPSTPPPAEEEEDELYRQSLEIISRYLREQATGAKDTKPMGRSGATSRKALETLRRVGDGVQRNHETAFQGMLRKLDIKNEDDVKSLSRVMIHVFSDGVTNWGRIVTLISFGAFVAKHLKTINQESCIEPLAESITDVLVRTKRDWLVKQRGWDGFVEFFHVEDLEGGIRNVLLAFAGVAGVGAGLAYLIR
Chain of Cytochrome P450 3A4 (P08684 whole entry): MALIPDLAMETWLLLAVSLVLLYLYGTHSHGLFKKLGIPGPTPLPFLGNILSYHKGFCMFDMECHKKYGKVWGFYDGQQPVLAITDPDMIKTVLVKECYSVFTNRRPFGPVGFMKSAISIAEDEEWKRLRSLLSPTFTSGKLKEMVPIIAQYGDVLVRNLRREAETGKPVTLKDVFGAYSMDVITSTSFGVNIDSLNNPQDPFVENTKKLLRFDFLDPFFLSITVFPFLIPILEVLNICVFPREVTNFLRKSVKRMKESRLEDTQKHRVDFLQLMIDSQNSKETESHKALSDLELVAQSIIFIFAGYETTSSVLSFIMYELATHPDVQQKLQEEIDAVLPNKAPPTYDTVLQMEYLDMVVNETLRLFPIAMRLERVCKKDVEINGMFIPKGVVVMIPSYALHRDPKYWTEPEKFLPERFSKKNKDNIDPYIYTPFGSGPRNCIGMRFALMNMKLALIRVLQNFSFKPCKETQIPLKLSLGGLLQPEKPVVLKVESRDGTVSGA
Chain of Trypsin (P00761 whole entry): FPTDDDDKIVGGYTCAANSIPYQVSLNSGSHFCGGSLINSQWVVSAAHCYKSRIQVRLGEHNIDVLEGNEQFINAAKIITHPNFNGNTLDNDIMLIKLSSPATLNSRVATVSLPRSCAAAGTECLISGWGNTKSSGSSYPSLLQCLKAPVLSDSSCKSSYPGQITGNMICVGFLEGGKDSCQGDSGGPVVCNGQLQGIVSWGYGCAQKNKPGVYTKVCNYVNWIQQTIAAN
Chain of FAD-linked sulfhydryl oxidase ALR (P55789 whole entry): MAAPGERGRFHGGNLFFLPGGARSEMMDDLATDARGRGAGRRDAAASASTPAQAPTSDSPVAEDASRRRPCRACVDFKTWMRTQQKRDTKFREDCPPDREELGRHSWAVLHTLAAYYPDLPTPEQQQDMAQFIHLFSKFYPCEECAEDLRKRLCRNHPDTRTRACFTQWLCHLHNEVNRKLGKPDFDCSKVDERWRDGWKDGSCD

Compound: O=C(c1ccccc1C(F)(F)F)N1CCN(S(=O)(=O)c2ccccc2)CC1
- IC50 (HEK293): > 67.6 µM (inactive)
- IC50 [1]: > 67.6 µM (inactive)

Compound: Clc1ccc(OCc2noc(-c3ccsc3)n2)c(Cl)c1
- AC50 (HeLa): 111 µM (active)
- IC50 (HEK293): > 67.5 µM (inactive)
- IC50 (Protein skinhead-1): > 100 µM (inactive)
- IC50 [1]: > 67.5 µM (inactive)

Compound: Nc1ccc2[nH]c(-c3ccccc3)nc2c1
- AC50 (Trypsin): 3.48 µM (active)
- AC50 [2]: 2.19 µM (active)
- AC50 (CAAX prenyl protease 2): 2.12 µM (active)
- CC50 [3]: 100 µM (active)
- IC50 [4]: 30.2 µM (active)

Compound: NCCc1ccc(OCc2ccccc2)c(OCc2ccccc2)c1
- IC50 [5]: > 20 µM (inactive)
- AC50 [6]: 11.2 µM (active)
- AC50 (A-375): 30.2 µM (active)

Compound: Cc1nc(N2CCOCC2)c2c(C)c(C(=O)Nc3ccccc3C(F)(F)F)sc2n1
- EC50 [7]: > 50 µM (active)
- AC50 (CAAX prenyl protease 2): 15 µM (active)

Compound: COc1ccc(-c2cc3nc4ccccc4n3c(N)c2C#N)cc1
- IC50 [8]: > 66.6 µM (inactive)
- AC50 (HeLa): 143 µM (active)
- EC50 (Streptokinase A): > 150 µM (not active)
- EC50 [9]: 1.45 µM (active)
- IC50 [10]: 2.52 µM (active)
- IC50 [11]: 7.98 µM (active)
- EC50 (Streptococcus): 15.7 µM (active)

Compound: COC(=O)c1cccc2c1NC(=O)C2=O
- IC50 (HEK293): > 67.6 µM (inactive)
- IC50 [1]: > 67.6 µM (inactive)

Compound: COc1ccc(-c2cn3cccc(C)c3n2)cc1F
- AC50 (HeLa): > 350 µM (inactive)

Compound: O=[N+]([O-])c1cccc(/C=C/c2nc(/C=N/c3ccccc3)c(O)o2)c1
- EC50 [12]: 19.2 µM (active)
- EC50 [13]: 39.4 µM (active)
- EC50 [14]: > 99 µM (inactive)
- EC50 [15]: > 300 µM (not active)

Compound: Cc1cc(C)nc(SCC(=O)N/N=C\c2sccc2C)n1
- AC50 (Cytochrome P450 3A4): 15.8 µM (inconclusive)
- AC50 (Cytochrome P450 2D6): inconclusive
